Measurements: PubChem BioAssay AID1645862 (Buhrlage Lab, Dana-Farber Cancer Institute and Novartis …, 2021)
Calls of active or inactive are those of the source. How the calls were made is not given here.

Target: Ubiquitin carboxyl-terminal hydrolase 8 (Homo sapiens) (UniProt P40818)
Assay: Ubiquitin-specific protease 8 inhibitors, concentration-effect, biochemical, validation of initial actives (AID 1645862);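 further: potency reflects inhibition of USP8 cleavage of a ubiquitin rhodamine substrate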
Details: recombinant USP8 deubiquitinase activity assay

Chain of Ubiquitin carboxyl-terminal hydrolase 8 (Homo sapiens) (P40818 whole entry, looked up): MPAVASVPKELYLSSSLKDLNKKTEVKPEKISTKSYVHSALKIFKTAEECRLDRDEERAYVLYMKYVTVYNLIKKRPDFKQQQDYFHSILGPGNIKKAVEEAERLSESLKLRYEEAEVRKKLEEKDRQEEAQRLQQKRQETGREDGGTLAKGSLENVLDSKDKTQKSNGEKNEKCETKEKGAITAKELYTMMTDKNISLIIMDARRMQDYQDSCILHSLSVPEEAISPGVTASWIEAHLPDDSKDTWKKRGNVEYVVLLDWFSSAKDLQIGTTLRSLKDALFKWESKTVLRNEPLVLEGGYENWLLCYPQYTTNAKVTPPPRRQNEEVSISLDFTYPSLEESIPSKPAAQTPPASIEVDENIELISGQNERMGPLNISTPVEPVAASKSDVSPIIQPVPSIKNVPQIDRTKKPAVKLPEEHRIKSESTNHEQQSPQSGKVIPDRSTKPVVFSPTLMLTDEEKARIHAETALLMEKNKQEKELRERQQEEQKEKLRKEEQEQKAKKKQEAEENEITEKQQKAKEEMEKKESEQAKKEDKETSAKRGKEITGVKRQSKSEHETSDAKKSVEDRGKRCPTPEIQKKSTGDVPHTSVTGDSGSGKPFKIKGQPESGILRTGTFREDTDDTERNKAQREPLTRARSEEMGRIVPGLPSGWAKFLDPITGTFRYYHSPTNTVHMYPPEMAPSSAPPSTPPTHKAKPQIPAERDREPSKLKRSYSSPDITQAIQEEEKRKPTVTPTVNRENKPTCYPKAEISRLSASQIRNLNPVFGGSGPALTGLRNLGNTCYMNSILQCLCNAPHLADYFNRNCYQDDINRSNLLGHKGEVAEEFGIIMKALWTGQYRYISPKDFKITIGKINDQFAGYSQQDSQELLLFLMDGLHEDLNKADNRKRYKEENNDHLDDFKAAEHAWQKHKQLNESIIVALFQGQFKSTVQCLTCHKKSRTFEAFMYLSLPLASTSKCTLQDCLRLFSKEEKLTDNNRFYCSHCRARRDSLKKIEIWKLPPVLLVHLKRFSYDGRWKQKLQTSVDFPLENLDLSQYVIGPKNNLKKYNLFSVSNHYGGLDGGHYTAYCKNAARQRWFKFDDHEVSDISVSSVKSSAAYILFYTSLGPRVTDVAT

SMILES | IC50
Cc1cc(C(=O)NC2(O)C(=O)c3ccccc3C2=O)n(C)n1 | 8.2 µM
COc1ccc(-c2nc(Cn3nnc(C(=O)Nc4ccc(C)c(C)c4)c3N)c(C)o2)cc1 | > 40 µM (inactive)
c1cncc(-c2cnc3sc(NCc4ccc5c(c4)OCO5)nn23)c1 | > 40 µM (inactive)
Cc1nc(N2CCN(c3ccc(Cl)cc3)CC2)c2oc3ccccc3c2n1 | > 40 µM (inactive)
COc1ccc(NC(=O)Cn2c(=O)n(CCCC(=O)NC3CCCC3)c(=O)c3cc(Cl)ccc32)c(OC)c1 | > 40 µM (inactive)
O=C(CNC(=O)OCc1ccccc1)Nc1ccc(Br)cc1C(=O)c1ccccc1Cl | > 40 µM (inactive)
CCn1cc2c(n1)c(=O)n(Cc1ccc(C)cc1)c(=O)n2CC(=O)Nc1ccc(F)cc1 | > 40 µM (inactive)
O=C(NCc1ccc2c(c1)OCO2)c1cc2c(s1)CCC2 | 16.1 µM
COc1cc(OC)c2c(c1)C(=O)C1=C(COC(C)(O)C1)C2=O (stereo not drawn) | > 40 µM (inactive)
COC(=O)c1ccc(NC(=O)/C=C/c2ccc(F)cc2)cc1 | > 40 µM (inactive)
COc1ccc(C2(c3nnc(C(C)Oc4ccc(F)cc4)o3)CCOCC2)cc1 (stereo not drawn) | > 40 µM (inactive)
Cn1cc(C(=O)NCC2COc3ccccc3O2)c(=O)c2cc(S(=O)(=O)N3CCCCC3)ccc21 (stereo not drawn) | > 40 µM (inactive)
Cc1nnc(-c2cc(S(=O)(=O)N3CCN(c4ccc(F)cc4)CC3)c[nH]2)o1 | > 40 µM (inactive)
O=C1c2c(O)c(Cl)cc3c2[C@@]2(Oc4ccc(O)c5c4[C@]3(O2)[C@@H]2O[C@@H]2C5=O)[C@@H]2O[C@H]12 | 1.09 µM
COc1ccc(-c2nc(-c3cn(-c4ccccc4)nn3)no2)c(OC)c1 | > 40 µM (inactive)
COc1ccc(NC(=O)CNC(=O)c2ccc3nc(-n4cccc4)sc3c2)cc1 | > 40 µM (inactive)
COc1ccc(CNC(=O)Nc2cccc3ccccc23)cc1 | > 40 µM (inactive)
O=C(Cn1cc(C(=O)c2ccccc2)c(=O)c2cc(F)ccc21)Nc1ccc2c(c1)OCO2 | > 40 µM (inactive)
O=C(/C=C/C=C/C=C/C1CCCCC1)NC1=C[C@@](O)(/C=C/C=C/C=C/C(=O)NC2=C(O)CCC2=O)[C@@H]2O[C@@H]2C1=O | > 40 µM (inactive)
CCOc1ccccc1NC(=O)Cn1c(=O)n(CCC(=O)NCCc2ccc(OC)c(OC)c2)c(=O)c2ccccc21 | > 40 µM (inactive)
COc1ccccc1Nc1ncc(C(=O)NCc2ccc(F)cc2)c2ccccc12 | > 40 µM (inactive)
Cc1cc(Cl)ccc1NC(=O)c1cc(-c2ccncc2)n[nH]1 | > 40 µM (inactive)

SMILES | IC50
CCN(CC)C(=O)c1sc(NC(=O)c2cc(-c3ccccc3Cl)nc3ccccc23)c(C(N)=O)c1C | > 40 µM (inactive)
Cc1cccc(OCCn2c(CCNC(=O)C3CCCCC3)nc3ccccc32)c1 | > 40 µM (inactive)
O=C(CCCc1nnc2c(=O)n(-c3cccc(F)c3)ccn12)Nc1ccccc1 | > 40 µM (inactive)
COC(=O)c1ccc(C(=O)Nc2cc3ccccc3cc2NC(=O)c2ccc(C(=O)OC)cc2)cc1 | > 40 µM (inactive)
COC(=O)c1ccc(Cn2nnc3c(=O)[nH]c(C4CCCN(S(=O)(=O)c5ccc(C)cc5)C4)nc32)cc1 (stereo not drawn) | > 40 µM (inactive)
O=C(Cn1c(=O)n(Cc2ccccc2)c(=O)c2ncccc21)NCc1ccccc1Cl | > 40 µM (inactive)
COc1ccccc1CNC(=O)C1c2ccccc2C(=O)N1Cc1ccccc1C (stereo not drawn) | > 40 µM (inactive)
N#Cc1ccccc1NC(=O)c1cc2c(s1)-c1ccccc1S(=O)(=O)C2 | > 40 µM (inactive)
COc1ccc(CNC(=O)c2ccc3c(=O)nc4c(-c5cccc(C)c5)n[nH]n4c3c2)cc1 | > 40 µM (inactive)
CCC(=O)N1c2ccccc2NC2=C(C(=O)CC(c3ccccc3OCc3ccccc3)C2)C1c1ccccc1 (stereo not drawn) | > 40 µM (inactive)
Cc1ccccc1NC(=O)N1CCC(CC(=O)N2CCCCC2)CC1 | > 40 µM (inactive)
COc1ccccc1NC(=O)c1nc(-c2cn(-c3cccc(F)c3)nn2)no1 | > 40 µM (inactive)
Cc1ccc(Cn2nnc3c(=O)[nH]c(C4CCN(S(=O)(=O)c5ccc(S(=O)(=O)NC6CCCC6)cc5)CC4)nc32)cc1 | > 40 µM (inactive)
Cc1noc(C)c1COc1cccc(C(=O)Nc2cc(Cl)ccc2-n2cncn2)c1 | > 40 µM (inactive)
O=C(Cn1cc(C(=O)C(F)(F)F)c2cc(Br)ccc21)N1CCc2ccccc21 | > 40 µM (inactive)
O=C(Cn1c(=O)n(Cc2ccc3c(c2)OCO3)c(=O)c2cccnc21)Nc1ccc(F)cc1 | > 40 µM (inactive)
Cn1cc(-c2nc(C(=O)Nc3ccc(C#N)cc3)cs2)c2cccnc21 | > 40 µM (inactive)
COc1ccc(C(NC(=O)c2nc3n(n2)-c2ccccc2S(=O)(=O)N3)C(C)C)cc1 (stereo not drawn) | > 40 µM (inactive)
O=C(Nc1ccc(F)cc1)Nc1ccccc1OCc1cc(=O)n2ccccc2n1 | > 40 µM (inactive)
O=C(c1cc(Cl)c(Cl)[nH]1)c1cc(Cl)cc(Cl)c1O | > 40 µM (inactive)
O=c1c(O)c(-c2ccc(O)c(O)c2)oc2cc(O)cc(O)c12 | 0.802 µM
